Measurements reported in patent US20260130933A1, “PHARMACEUTICAL COMPOSITION FOR PREVENTION OR TREATMENT OF NEPHROPATHY AND/OR DIABETES MELLITUS, COMPRISING ENAVOGLIFLOZIN” (DAEWOONG PHARMACEUTICAL CO., LTD., priority 2022, published 2026).

Experiment: Example 3: phase 3 trial, enavogliflozin 0.3 mg vs dapagliflozin 10 mg once a day for 24 weeks added to metformin and gemigliptin in patients with type 2 diabetes (same endpoints, rescue drug)
Type: in vivo, human
Protocol: 1) when Metformin (≥1,000 mg/Day) was Administered at a Constant Dose for at Least 8 Weeks Prior to Pre-Visit (Pre-Screening) • Metformin (≥1,000 mg/day) and gemigliptin (50 mg/day) were co-administered during the 8-week stabilization period. […] 4) when Metformin (≥1,000 mg/Day) and Gemigliptin (50 mg/Day) were Co-Administered at Constant Doses for at Least 8 Weeks Prior to Pre-Visit (Prescreening) • Without a separate stabilization period, Pre-visit (pre-screening) was Visit 1 (screening).
Subjects who met the inclusion/exclusion criteria continued to receive metformin and gemigliptin while receiving a placebo of the clinical trial drug in a single-blind (subject-blinded) state for a 2-week run-in period.
Here, the randomized subjects were stratified according to the administration therapy (co-administration with two or less agents (one or two agents) or three or more agents) of a conventional hypoglycemic agent (before washout of another hypoglycemic agent) within 24 weeks prior to obtaining written informed consent and by an HbA1c value (<8% or ≥8%) at Visit 1 (screening) measured in the central laboratory.
The randomized subjects were administered two tablets of the clinical trial drug corresponding to each administration group once a day, and then visited the institution at weeks 6, 12, 18, and 24 during the 24-week administration period to conduct efficacy and safety assessments. In addition, during the clinical trial period, they were instructed to exercise regularly and control their diet without changing their daily life patterns.
• 1) Change in HbA1c at week 24 after administration of clinical trial drug compared to Visit 2 (randomization)
• 1) Change in HbA1c at each time point of weeks 6, 12, and 18 after administration of clinical trial drug compared to Visit 2 (randomization) • 2) Change in FPG at each time point of weeks 6, 12, 18, and 24 after administration of clinical trial drug compared to Visit 2 (randomization) • 3) Proportion of subjects achieving HbA1c<7% at each time point of weeks 6, 12, 18, and 24 after administration of clinical trial drug • 4) Proportion of subjects achieving HbA1c<6.5% at each time point of weeks 6, 12, 18, and 24 after administration of clinical trial drug • 5) Proportion of subjects achieving therapeutic response (HbA1c change (HbA1c at Visit 2—HbA1c at each evaluation time point)>0.5% or HbA1c<7% at each evaluation time point compared to Visit 2 (randomization)) at each time point of weeks 6, 12, 18, and 24 after administration of clinical trial drug • 6) Proportion of subjects achieving therapeutic response (HbA1c change (HbA1c at Visit 2—HbA1c at each evaluation time point)>0.7% or HbA1c<7% at each evaluation time point compared to Visit 2 (randomization)) at each time point of weeks 6, 12, 18, and 24 after administration of clinical trial drug • 7) Proportion of subjects achieving therapeutic response (HbA1c change (HbA1c at Visit 2—HbA1c at each evaluation time point)>1% or HbA1c<7% at each evaluation time point compared to Visit 2 (randomization)) at each time point of weeks 6, 12, 18, and 24 after administration of clinical trial drug

[1] = week 6, modified per-protocol set 1, enavogliflozin 0.3 mg, dapagliflozin 10 mg
[2] = week 6, modified per-protocol set 2
[3] = week 6, modified per-protocol set 2, enavogliflozin 0.3 mg, dapagliflozin 10 mg
[4] = week 6, per-protocol set, enavogliflozin 0.3 mg, dapagliflozin 10 mg

CCOc1ccc(Cc2cc([C@@H]3O[C@H](CO)[C@@H](O)[C@H](O)[C@H]3O)ccc2Cl)cc1 [Dapagliflozin, reference compound]
HbA1c, Mean (SD) (Baseline, PPS): 7.83% | HbA1c, Median (Baseline, PPS): 7.64% | HbA1c change from baseline, ANCOVA LS mean (SE) (Week 24, PPS): −0.86 % p | HbA1c change from baseline, Mean (SD) (Week 24, PPS): −0.89 % p | HbA1c change from baseline, Median (Week 24, PPS): −0.86 % p | HbA1c, Mean (SD) (Week 24, PPS): 6.94% | HbA1c, Median (Week 24, PPS): 6.81% | FPG change from baseline, LS mean (SE) (week 6): −22.71(1.39) mg/dL | HDL-C change from baseline, LS mean (SE) (week 6): 1.13(0.56) mg/dL | HOMA-IR change from baseline, LS mean (SE) (week 6): −0.99(0.14) | HOMA-β change from baseline, LS mean (SE) (week 6): 3.20(3.04) | HbA1c change from baseline, LS mean (SE) (week 6): −0.70(0.03) % p | LDL-C change from baseline, LS mean (SE) (week 6): 1.91(1.78) mg/dL | UACR change from baseline, LS mean (SE) (week 6): −14.85(3.36) g/kg | UGCR change from baseline, LS mean (SE) (week 6): 45.75(2.14) mg/mg | adiponectin change from baseline, LS mean (SE) (week 6): 0.37(0.33) μg/mL | body weight change from baseline, LS mean (SE) (week 6): −1.80(0.16) kg | diastolic blood pressure change from baseline, LS mean (SE) (week 6): −1.88(0.67) mmHg | fasting C-peptide change from baseline, LS mean (SE) (week 6): −0.04(0.02) ng/mL | leptin change from baseline, LS mean (SE) (week 6): −2.03(0.45) ng/mL | systolic blood pressure change from baseline, LS mean (SE) (week 6): −3.49(0.87) mmHg | total cholesterol change from baseline, LS mean (SE) (week 6): 2.63(1.93) mg/dL | triglyceride change from baseline, LS mean (SE) (week 6): −5.39(4.38) mg/dL | Change from baseline in HDL-C, ANCOVA LS mean [1]: 1.13 mg/dL | Change from baseline in HDL-C, Mean [1]: 0.94 mg/dL | Change from baseline in HDL-C, Median [1]: 1.00 mg/dL | Change from baseline in LDL-C, ANCOVA LS mean [1]: 1.91 mg/dL | Change from baseline in LDL-C, Mean [1]: 1.40 mg/dL | Change from baseline in LDL-C, Median [1]: 1.00 mg/dL | Change from baseline in total cholesterol, ANCOVA LS mean [1]: 2.63 mg/dL | Change from baseline in total cholesterol, Mean [1]: 1.55 mg/dL | Change from baseline in total cholesterol, Median [1]: 2.00 mg/dL | Change from baseline in triglycerides, ANCOVA LS mean [1]: -5.39 mg/dL | Change from baseline in triglycerides, Mean [1]: -10.00 mg/dL | Change from baseline in triglycerides, Median [1]: 1.00 mg/dL | Fasting HDL-C, Mean [1]: 48.39 mg/dL | Fasting HDL-C, Median [1]: 48.00 mg/dL | Fasting LDL-C, Mean [1]: 78.50 mg/dL | Fasting LDL-C, Median [1]: 70.00 mg/dL | Fasting total cholesterol, Mean [1]: 145.04 mg/dL | Fasting triglycerides, Mean [1]: 121.81 mg/dL | Fasting triglycerides, Median [1]: 98.00 mg/dL | fasting Total cholesterol, Median [1]: 136.00 mg/dL | Change from baseline in diastolic blood pressure, ANCOVA LS mean [2]: −1.88 mmHg | Change from baseline in diastolic blood pressure, Mean [2]: −1.57 mmHg | Change from baseline in diastolic blood pressure, Median [2]: −2.00 mmHg | Diastolic blood pressure, Mean [2]: 72.20 mmHg | Diastolic blood pressure, Median [2]: 72.00 mmHg | Change from baseline in systolic blood pressure, ANCOVA LS mean [3]: −3.49 mmHg | Change from baseline in systolic blood pressure, Mean [3]: −3.23 mmHg | Change from baseline in systolic blood pressure, Median [3]: −3.50 mmHg | Systolic blood pressure, Mean [3]: 120.64 mmHg | Systolic blood pressure, Median [3]: 119.00 mmHg | Adiponectin, Mean (week 6, per-protocol set): 6.69 µg/mL | Adiponectin, Median (week 6, per-protocol set): 5.80 µg/mL | Change from baseline in HOMA-IR, ANCOVA LS mean (week 6, per-protocol set): −0.99 | Change from baseline in HOMA-IR, Mean (week 6, per-protocol set): −0.92 | Change from baseline in HOMA-IR, Median (week 6, per-protocol set): −0.72 | Change from baseline in HOMA-β, ANCOVA LS mean (week 6, per-protocol set): 3.20 | Change from baseline in HOMA-β, Mean (week 6, per-protocol set): 4.48 | Change from baseline in HOMA-β, Median (week 6, per-protocol set): 5.30 | Change from baseline in UACR, ANCOVA LS mean (week 6, per-protocol set): -14.85 g/kg | Change from baseline in UACR, Mean (week 6, per-protocol set): -7.25 g/kg | Change from baseline in UACR, Median (week 6, per-protocol set): -0.40 g/kg | Change from baseline in UGCR, ANCOVA LS mean (week 6, per-protocol set): 45.75 mg/mg | Change from baseline in UGCR, Mean (week 6, per-protocol set): 43.58 mg/mg | Change from baseline in UGCR, Median (week 6, per-protocol set): 42.62 mg/mg | Change from baseline in adiponectin, ANCOVA LS mean (week 6, per-protocol set): 0.37 µg/mL | Change from baseline in adiponectin, Mean (week 6, per-protocol set): 0.31 µg/mL | Change from baseline in adiponectin, Median (week 6, per-protocol set): 0.34 µg/mL | Change from baseline in leptin, ANCOVA LS mean (week 6, per-protocol set): -2.03 ng/mL | Change from baseline in leptin, Mean (week 6, per-protocol set): -2.04 ng/mL | Change from baseline in leptin, Median (week 6, per-protocol set): -1.26 ng/mL | HOMA-IR (insulin resistance), Mean (week 6, per-protocol set): 1.90 | HOMA-IR (insulin resistance), Median (week 6, per-protocol set): 1.66 | HOMA-β (beta-cell function), Mean (week 6, per-protocol set): 44.56 | HOMA-β (beta-cell function), Median (week 6, per-protocol set): 36.75 | Leptin, Mean (week 6, per-protocol set): 8.78 ng/mL | Leptin, Median (week 6, per-protocol set): 7.03 ng/mL | UACR, Mean (week 6, per-protocol set): 23.20 g/kg | UACR, Median (week 6, per-protocol set): 11.20 g/kg | UGCR, Mean (week 6, per-protocol set): 45.12 mg/mg | UGCR, Median (week 6, per-protocol set): 43.37 mg/mg | Body weight, Mean [4]: 65.20 kg | Change from baseline in FPG, ANCOVA LS mean [4]: -22.71 mg/dL | Change from baseline in FPG, Mean [4]: -22.87 mg/dL | Change from baseline in FPG, Median [4]: -18.50 mg/dL | Change from baseline in HbA1c, ANCOVA LS mean [4]: −0.70 % p | Change from baseline in HbA1c, Mean [4]: −0.72 % p | Change from baseline in HbA1c, Median [4]: −0.65 % p | Change from baseline in body weight, ANCOVA LS mean [4]: -1.80 kg | Change from baseline in body weight, Mean [4]: -1.68 kg | Change from baseline in body weight, Median [4]: -1.55 kg | Change from baseline in fasting C-peptide, ANCOVA LS mean [4]: -0.04 ng/mL | Change from baseline in fasting C-peptide, Mean [4]: -0.04 ng/mL | Change from baseline in fasting C-peptide, Median [4]: -0.03 ng/mL | FPG, Mean [4]: 117.64 mg/dL | FPG, Median [4]: 116.50 mg/dL | Fasting C-peptide, Mean [4]: 0.65 ng/mL | Fasting C-peptide, Median [4]: 0.63 ng/mL | HbA1c, Mean [4]: 7.10%
